ChEMBL document CHEMBL6127051, “Hydrazinecarboxamides: Comprehensive review of their anticancer, anticonvulsive, anti-inflammatory, enzyme inhibition, antioxidant and other activities” (Eur J Med Chem, 2024)
One block for each compound: values may come before it.

How the values were obtained:
Mus musculus [1] = assay: Anticonvulsant activity in po dosed scPTZ induced Albino mouse seizure model measured after 4 hrs; format: functional
[2] = Inhibition of alpha amylase (unknown origin); parameters: species or system Homo sapiens
AR-42J cell line = assay: Antiproliferative activity against AR42J cells assessed as reduction in cell viability incubated for 24 hrs by MTT colorimetric assay; format: functional, cell-based; details: Rattus norvegicus
Mus musculus [3] = assay: Anticonvulsant activity in ip dosed MES induced mouse model measured after 2 hrs; format: functional
[4] = Antiplatelet activity in human platelets assessed as inhibition of collagen-induced platelet aggregation at 10 uM relative to control; format: functional; parameters: scale not given: the % may be the effect or the level left
[5] = Antiplatelet activity in human platelets assessed as inhibition of collagen-induced platelet aggregation at 20 uM relative to control; format: functional; parameters: scale not given: the % may be the effect or the level left
DNA topoisomerase 1 = DNA topoisomerase 1 (Homo sapiens, UniProt P11387); assay: Inhibition of DNA topoisomerase I (unknown origin)
DNA topoisomerase 1, sequence (P11387 whole entry): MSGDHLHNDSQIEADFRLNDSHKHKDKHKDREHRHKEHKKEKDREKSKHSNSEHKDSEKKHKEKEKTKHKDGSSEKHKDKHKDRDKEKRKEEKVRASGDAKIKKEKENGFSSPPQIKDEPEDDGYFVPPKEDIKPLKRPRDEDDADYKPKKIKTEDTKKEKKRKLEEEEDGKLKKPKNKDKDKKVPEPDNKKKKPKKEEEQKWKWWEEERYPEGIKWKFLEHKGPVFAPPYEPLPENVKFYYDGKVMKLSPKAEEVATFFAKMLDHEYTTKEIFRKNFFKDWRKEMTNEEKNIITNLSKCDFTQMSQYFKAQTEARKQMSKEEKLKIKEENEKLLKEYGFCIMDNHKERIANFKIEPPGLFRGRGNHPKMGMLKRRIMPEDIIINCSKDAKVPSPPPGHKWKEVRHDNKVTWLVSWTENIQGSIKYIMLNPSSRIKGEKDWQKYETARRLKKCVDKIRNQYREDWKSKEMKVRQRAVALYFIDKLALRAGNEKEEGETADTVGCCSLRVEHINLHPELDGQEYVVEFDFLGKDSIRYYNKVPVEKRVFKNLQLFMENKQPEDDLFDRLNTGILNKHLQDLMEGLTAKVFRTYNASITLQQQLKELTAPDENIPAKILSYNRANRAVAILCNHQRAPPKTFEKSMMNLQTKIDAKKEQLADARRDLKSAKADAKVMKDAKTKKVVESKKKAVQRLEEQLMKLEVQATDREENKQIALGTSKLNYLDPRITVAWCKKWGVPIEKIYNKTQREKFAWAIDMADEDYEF

P388 = assay: Cytotoxicity against mouse P388 cells assessed as reduction in cell viability; format: functional, cell-based
MKN-45 = assay: Antiproliferative activity against human MKN-45 cells assessed as inhibition of cell growth by MTT assay; format: functional, cell-based
Mus musculus [6] = assay: Anticonvulsant activity in ip dosed MES induced mouse model measured after 4 hrs; format: functional
PC-3 = assay: Antiproliferative activity against human PC-3 cells assessed as inhibition of cell growth at 10 uM relative to control; format: functional; parameters: scale not given: the % may be the effect or the level left; details: pooled result: one value given for 4 cell lines, strains, targets or settings
UO-31 = assay: Antiproliferative activity against human UO-31 cells assessed as inhibition of cell growth at 10 uM relative to control; format: functional; parameters: scale not given: the % may be the effect or the level left
MCF7 [7] = assay: Antiproliferative activity against human MCF7 cells assessed as reduction in cell viability measured after 48 hrs by MTT assay; format: functional, cell-based; details: MCF7, 48 h
HepG2 [8] = assay: Antiproliferative activity against human HepG2 cells assessed as reduction in cell growth incubated for 24 hrs by MTT assay; format: functional, cell-based; details: HepG2, 24 h
NCI-H1563 = assay: Antiproliferative activity against human NCI-H1563 cells assessed as reduction in cell growth incubated for 24 hrs by MTT assay; format: functional, cell-based; details: NCI-H1563, 24 h
769-P = assay: Antiproliferative activity against human 769-P cells assessed as reduction in cell growth incubated for 48 hrs by MTT assay; format: functional, cell-based
HepG2 [9] = assay: Antiproliferative activity against human HepG2 cells assessed as reduction in cell growth incubated for 48 hrs by MTT assay; format: functional, cell-based; details: HepG2, 48 h
HEK293 = assay: Antiproliferative activity against HEK293 cells assessed as inhibition of cell growth incubated for 48 hrs by CCK8 assay; format: functional, cell-based; details: Homo sapiens, HEK293, 48 h
[10] = Inhibition of Lipoxygenase (unknown origin); parameters: species or system Homo sapiens
Alpha glucosidase = Alpha glucosidase (Homo sapiens, UniProt O43451+P10253+P14410+Q2M2H8); assay: Inhibition of Alpha glucosidase (unknown origin); format: protein assay
Acetylcholinesterase = Acetylcholinesterase (Electrophorus electricus, UniProt O42275); assay: Inhibition of electric eel AChE using acetylthiocholine iodide as substrate incubated for 15 mins by Ellman's method
Acetylcholinesterase, sequence (O42275 whole entry): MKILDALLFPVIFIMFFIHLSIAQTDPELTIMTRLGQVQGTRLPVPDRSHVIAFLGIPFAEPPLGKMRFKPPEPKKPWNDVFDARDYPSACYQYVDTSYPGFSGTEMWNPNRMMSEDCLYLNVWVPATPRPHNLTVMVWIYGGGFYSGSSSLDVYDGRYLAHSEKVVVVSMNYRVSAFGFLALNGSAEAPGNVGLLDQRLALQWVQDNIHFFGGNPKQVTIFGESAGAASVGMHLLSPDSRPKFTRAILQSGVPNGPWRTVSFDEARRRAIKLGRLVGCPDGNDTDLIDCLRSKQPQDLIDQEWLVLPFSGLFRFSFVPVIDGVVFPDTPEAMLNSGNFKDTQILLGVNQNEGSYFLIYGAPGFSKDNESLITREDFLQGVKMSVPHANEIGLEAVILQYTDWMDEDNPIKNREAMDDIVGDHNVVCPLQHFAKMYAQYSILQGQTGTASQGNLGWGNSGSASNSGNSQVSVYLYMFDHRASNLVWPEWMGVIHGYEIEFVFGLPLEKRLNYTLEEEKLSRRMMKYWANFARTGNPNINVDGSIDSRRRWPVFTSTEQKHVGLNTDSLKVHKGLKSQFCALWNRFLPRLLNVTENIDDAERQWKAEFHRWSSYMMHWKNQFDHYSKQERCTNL

Cholinesterase = Cholinesterase (Equus caballus, UniProt P81908); assay: Inhibition of equine serum BChE using butyrylthiocholine iodide as substrate measured after 15 mins by Ellman's method
Cholinesterase, sequence (P81908 whole entry): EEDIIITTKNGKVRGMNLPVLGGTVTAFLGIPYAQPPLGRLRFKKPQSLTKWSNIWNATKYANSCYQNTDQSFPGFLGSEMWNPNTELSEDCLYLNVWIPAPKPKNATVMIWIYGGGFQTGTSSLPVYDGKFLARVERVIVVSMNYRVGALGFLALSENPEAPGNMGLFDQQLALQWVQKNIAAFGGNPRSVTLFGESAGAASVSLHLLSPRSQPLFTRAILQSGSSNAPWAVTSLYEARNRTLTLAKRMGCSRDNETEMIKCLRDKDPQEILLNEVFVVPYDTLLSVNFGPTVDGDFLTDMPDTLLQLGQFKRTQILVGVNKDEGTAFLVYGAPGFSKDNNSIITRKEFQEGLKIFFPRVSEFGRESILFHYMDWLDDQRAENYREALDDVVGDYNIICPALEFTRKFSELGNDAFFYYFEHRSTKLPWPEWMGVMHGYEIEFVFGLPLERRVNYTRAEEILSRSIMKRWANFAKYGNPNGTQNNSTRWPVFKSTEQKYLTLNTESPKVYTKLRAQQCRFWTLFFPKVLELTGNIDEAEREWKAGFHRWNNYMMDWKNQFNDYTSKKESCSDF

[11] = molecular target: Polyunsaturated fatty acid 5-lipoxygenase (Homo sapiens, UniProt P09917); assay: Inhibition of 5-LOX (unknown origin)
Polyunsaturated fatty acid 5-lipoxygenase, sequence (P09917 whole entry): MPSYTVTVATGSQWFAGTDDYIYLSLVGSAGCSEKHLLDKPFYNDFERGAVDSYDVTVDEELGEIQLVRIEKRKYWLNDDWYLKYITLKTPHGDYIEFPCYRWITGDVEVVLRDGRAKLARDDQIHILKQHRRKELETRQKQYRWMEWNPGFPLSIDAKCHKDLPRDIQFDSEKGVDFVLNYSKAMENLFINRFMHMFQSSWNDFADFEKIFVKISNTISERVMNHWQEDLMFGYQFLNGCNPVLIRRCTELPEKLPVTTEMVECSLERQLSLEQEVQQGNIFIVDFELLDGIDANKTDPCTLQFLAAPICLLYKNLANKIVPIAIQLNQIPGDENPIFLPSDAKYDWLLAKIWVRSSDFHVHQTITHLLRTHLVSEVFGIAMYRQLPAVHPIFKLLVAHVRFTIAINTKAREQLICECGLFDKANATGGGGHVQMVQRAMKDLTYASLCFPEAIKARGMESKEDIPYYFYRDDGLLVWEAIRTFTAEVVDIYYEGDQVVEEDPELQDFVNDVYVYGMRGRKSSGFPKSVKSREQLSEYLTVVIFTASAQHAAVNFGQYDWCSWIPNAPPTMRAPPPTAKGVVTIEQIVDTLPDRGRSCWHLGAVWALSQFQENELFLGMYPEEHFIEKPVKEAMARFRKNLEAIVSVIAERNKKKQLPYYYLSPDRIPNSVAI

[12] = Tmax in rat at 2 mg/kg, po by LC-MS/MS analysis; format: ADME, organism-based; details: in vivo
[13] = Half life in rat at 2 mg/kg, po by LC-MS/MS analysis; format: ADME, organism-based; details: in vivo
MCF7 [14] = assay: Antiproliferative activity against human MCF7 cells assessed as reduction in cell growth incubated for 48 hrs by MTT assay; format: functional, cell-based; details: MCF7, 48 h
HepG2 [15] = assay: Antiproliferative activity against human HepG2 cells assessed as inhibition of cell growth incubated for 48 hrs by MTT assay; format: functional, cell-based; details: HepG2, 48 h

IC50 [2]: 64.8 µM
Compound: O=C(CNc1nc2ccccc2n1C(=O)Nc1ccccc1)NNC(=O)Nc1ccccc1
IC50 (AR-42J cell line): 304 µM

IC50 (DNA topoisomerase 1): 0.25 µM
IC50 (MKN-45): 0.035 µM
Compound: O=C(Nc1ccccc1)NN1C(=O)c2c(c3c4cccc(O)c4n([C@H]4O[C@H](CO)[C@@H](O)[C@H](O)[C@H]4O)c3c3[nH]c4c(O)cccc4c23)C1=O
IC50 (P388): 0.035 µM

IC50 (MCF7 [7]): 0.012 µM
Compound: COc1cc(/C=C2\SC(=S)N(n3c(=O)[nH]c4ccccc4c3=O)C2=O)ccc1OC(=O)c1ccccc1

IC50 [10]: 60 µM
Compound: CC(C(=O)O)c1cccc(Oc2ccccc2)c1 (stereo not drawn) [FENOPROFEN]

IC50 [2]: 53 µM
IC50 (Alpha glucosidase): 94.33 µM
Compound: Cc1ccc(C[C@@H]2C[C@H]3C(=O)N(C)C4(C[C@H](C)CC[C@H]4C(C)C)N3O2)c(OCC(=O)NNC(=O)Nc2cccc3ccccc23)c1 (stereo partly drawn)

IC50 (MCF7 [14]): 10.3 µM
IC50 (HepG2 [15]): 7.73 µM
Compound: O=C(NNC(=O)C(=O)Nc1ccccc1)Nc1ccccc1

Second part, the compound before the results:

Compound: O=C(CSc1nc2ccccc2n2cnnc12)NNC(=O)NC1CCCCC1
ED50 (Mus musculus [1]): 30 mg/kg

Compound: Cc1ccc(NC(=O)NN)cc1
Activity (Mus musculus [3]): 100%

Compound: O=C(NNc1ccnc2ccccc12)Nc1ccccc1
Activity [4]: 11.7%
Activity [5]: 10.6%

Compound: NNC(=O)Nc1ccccc1Cl
Activity (Mus musculus [6]): 66.6%

Compound: CC(=O)Nc1nc(C)c(C(=O)NNC(=O)Nc2ccccc2)s1
Activity (PC-3): 14.8%
Activity (UO-31): 14.8%

Compound: CCNC(=O)NNC(=O)c1ccc([N+](=O)[O-])cc1
IC50 (HepG2 [8]): 7.06 µM
IC50 (NCI-H1563): 336 µM
IC50 (769-P): 4780 µM
IC50 (HepG2 [9]): 1930 µM
IC50 (HEK293): 1500 µM

Compound: CCCCCCCCCCCCCNC(=O)NNC(=O)c1ccc(C(F)(F)F)cc1
IC50 (Acetylcholinesterase): 27 µM
IC50 (Cholinesterase): 58 µM

Compound: O=C1NCCN(c2ccccc2)N1
IC50 [11]: 5 µM
Tmax [12]: 1 h
half-life [13]: 3.3 h
